Results reported in publication PMC10044120, “Potent and selective covalent inhibition of the papain-like protease from SARS-CoV-2” (Nature Communications, 2023).
“And” between values parts separate entries of the source, which are not always exact repeats. Identical values can stand only once. Like-named read-outs stand apart in the source and are kept apart here.

Legend:
USP15 = biological target: T1, USP15 (Homo sapiens, UniProt Q9Y4E8); test: DUB selectivity assay, USP15 (Ub-rhodamine110); format: biochemical
T1 construct: purchased LifeSensors, Inc. (Malvern, PA)
T1 sequence (Q9Y4E8 1-981): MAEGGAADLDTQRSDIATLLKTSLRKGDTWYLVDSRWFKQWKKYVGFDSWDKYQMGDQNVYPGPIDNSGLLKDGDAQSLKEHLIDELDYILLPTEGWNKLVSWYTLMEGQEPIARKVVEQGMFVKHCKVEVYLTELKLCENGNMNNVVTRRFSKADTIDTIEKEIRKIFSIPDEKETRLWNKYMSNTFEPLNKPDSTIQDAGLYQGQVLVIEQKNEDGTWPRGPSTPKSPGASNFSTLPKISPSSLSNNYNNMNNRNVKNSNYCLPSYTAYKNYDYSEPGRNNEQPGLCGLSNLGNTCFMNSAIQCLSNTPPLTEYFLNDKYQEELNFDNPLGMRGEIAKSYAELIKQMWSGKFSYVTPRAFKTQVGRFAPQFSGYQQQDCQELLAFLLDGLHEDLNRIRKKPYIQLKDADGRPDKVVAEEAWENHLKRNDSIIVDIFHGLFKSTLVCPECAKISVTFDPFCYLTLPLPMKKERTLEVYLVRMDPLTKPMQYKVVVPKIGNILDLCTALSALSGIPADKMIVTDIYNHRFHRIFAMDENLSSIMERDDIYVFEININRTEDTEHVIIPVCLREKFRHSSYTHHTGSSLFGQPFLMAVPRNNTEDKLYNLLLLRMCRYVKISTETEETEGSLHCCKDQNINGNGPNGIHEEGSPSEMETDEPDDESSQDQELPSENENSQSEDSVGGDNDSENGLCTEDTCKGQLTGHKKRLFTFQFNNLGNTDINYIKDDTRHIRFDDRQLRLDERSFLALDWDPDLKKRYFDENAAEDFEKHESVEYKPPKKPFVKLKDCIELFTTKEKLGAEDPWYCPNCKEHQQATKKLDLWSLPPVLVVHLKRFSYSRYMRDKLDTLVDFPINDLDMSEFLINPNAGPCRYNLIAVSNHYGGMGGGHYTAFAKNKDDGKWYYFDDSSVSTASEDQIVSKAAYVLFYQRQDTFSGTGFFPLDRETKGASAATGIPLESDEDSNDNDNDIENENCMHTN

USP8 = biological target: T2, USP8 (Homo sapiens, UniProt P40818); test: biochemical; details: USP8 10 nM, Ub-rhodamine110
T2 construct: USP2c, USP4, USP7, USP8c, USP15, USP30WT, and UCH-L1; purchased LifeSensors, Inc. (Malvern, PA)

USP7 = biological target: T3, USP7 (Homo sapiens, UniProt Q93009); test: biochemical; details: USP7 5 nM, Ub-CHOP2
T3 construct: purchased LifeSensors, Inc. (Malvern, PA)

[1] = Metabolic stability in rat liver S9 fraction; details: Sprague-Dawley
SARS-CoV-2 PLpro [2] = biological target: T4, SARS-CoV-2 PLpro (Severe acute respiratory syndrome coronavirus 2, UniProt P0DTD1); test: biochemical; details: PLpro 10 nM, ISG15-CHOP2
SARS-CoV-2 PLpro [3] = biological target: T4, SARS-CoV-2 PLpro; test: biochemical; details: PLpro 50 nM, Ub-rhodamine110
PLpro from SARS-CoV-2 [4] = biological target: T5, PLpro from SARS-CoV-2 (Severe acute respiratory syndrome coronavirus 2, UniProt P0DTD1); test: biochemical; format: biochemical; details: 0.5 h
PLpro = PLpro (Severe acute respiratory syndrome coronavirus 2, UniProt P0DTD1); test: Intact protein ESI-MS to assess covalent adduct formation; format: binding, SARS-CoV-2; design: unit not given here
PLpro from SARS-CoV-2 [5] = biological target: T5, PLpro from SARS-CoV-2; test: biochemical; format: biochemical; design: mean (kobs plot, Supplementary Figure 6 II): unit: min^-1
[6] = tested on: SARS-CoV-2 isolate USA-WA1/2020; test: microbe, parasite or virus in culture
USP2 = biological target: T6, USP2 (Homo sapiens, UniProt O75604); test: biochemical; details: USP2 10 nM, Ub-rhodamine110
T6 construct: USP2c, USP4, USP7, USP8c, USP15, USP30WT, and UCH-L1; purchased LifeSensors, Inc. (Malvern, PA)

USP30 = biological target: T7, USP30 (Homo sapiens, UniProt Q70CQ3); test: biochemical; details: USP30 10 nM, Ub-rhodamine110
T7 construct: purchased LifeSensors, Inc. (Malvern, PA)
T7 sequence (Q70CQ3 whole entry): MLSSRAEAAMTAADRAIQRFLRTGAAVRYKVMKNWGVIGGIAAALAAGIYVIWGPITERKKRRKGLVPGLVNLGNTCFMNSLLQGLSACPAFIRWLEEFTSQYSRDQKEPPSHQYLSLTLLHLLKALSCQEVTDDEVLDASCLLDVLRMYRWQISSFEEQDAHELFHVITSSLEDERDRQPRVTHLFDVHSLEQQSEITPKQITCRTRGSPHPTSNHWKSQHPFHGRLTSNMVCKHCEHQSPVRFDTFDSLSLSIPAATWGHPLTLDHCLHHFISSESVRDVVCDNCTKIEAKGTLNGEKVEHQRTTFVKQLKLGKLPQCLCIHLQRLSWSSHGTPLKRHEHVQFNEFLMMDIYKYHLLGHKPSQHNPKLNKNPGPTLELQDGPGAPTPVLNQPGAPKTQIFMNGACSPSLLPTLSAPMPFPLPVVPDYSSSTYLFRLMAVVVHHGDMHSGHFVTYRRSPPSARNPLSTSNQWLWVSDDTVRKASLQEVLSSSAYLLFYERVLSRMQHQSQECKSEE

T6 sequence (O75604 267-599): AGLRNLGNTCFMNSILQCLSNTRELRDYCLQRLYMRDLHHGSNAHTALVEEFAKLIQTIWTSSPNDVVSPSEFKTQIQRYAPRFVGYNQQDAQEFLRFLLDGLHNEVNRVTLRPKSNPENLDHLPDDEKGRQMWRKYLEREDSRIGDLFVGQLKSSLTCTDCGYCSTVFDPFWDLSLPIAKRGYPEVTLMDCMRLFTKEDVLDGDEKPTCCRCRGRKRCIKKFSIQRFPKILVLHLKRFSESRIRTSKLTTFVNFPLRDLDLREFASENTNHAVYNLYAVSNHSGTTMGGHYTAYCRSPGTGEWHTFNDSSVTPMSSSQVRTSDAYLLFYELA
T3 sequence (Q93009 whole entry): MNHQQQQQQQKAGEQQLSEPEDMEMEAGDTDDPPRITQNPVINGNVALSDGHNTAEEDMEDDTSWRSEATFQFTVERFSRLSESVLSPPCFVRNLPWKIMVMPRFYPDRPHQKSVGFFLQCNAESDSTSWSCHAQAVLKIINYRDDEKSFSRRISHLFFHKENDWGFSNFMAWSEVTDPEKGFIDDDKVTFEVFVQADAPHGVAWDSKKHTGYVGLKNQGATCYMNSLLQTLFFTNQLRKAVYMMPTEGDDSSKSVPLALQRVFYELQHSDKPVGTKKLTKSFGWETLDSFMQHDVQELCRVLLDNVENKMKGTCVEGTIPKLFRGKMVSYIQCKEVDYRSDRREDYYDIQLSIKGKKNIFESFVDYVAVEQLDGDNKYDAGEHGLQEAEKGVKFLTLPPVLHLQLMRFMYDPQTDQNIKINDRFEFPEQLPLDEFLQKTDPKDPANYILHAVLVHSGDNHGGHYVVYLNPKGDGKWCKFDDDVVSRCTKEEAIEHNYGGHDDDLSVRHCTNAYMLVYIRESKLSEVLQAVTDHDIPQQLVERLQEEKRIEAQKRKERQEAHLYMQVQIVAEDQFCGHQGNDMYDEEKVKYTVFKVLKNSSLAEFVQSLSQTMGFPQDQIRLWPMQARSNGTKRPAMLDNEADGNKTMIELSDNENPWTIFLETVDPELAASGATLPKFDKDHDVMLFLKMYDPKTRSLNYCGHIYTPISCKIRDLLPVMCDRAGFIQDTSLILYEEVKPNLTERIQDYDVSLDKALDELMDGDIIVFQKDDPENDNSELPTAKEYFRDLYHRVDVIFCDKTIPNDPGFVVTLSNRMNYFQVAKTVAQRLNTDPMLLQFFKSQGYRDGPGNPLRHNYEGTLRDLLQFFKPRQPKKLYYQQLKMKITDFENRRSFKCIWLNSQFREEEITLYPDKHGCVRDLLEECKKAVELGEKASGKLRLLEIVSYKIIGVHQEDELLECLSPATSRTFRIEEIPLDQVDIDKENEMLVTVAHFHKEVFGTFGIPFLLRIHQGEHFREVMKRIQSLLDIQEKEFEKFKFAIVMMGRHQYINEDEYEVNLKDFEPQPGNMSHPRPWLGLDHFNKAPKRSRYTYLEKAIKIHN
T2 sequence (P40818 777-1109): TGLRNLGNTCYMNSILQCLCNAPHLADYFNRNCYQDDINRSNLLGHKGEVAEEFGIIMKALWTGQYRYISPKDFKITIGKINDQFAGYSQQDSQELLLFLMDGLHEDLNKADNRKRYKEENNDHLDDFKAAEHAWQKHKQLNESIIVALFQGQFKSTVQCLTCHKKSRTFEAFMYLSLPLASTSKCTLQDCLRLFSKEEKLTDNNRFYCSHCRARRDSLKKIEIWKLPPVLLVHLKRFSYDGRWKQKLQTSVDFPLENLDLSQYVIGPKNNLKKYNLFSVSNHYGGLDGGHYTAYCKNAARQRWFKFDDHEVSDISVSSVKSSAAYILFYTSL

In the case of `COC(=O)/C=C/C(=O)NNC(=O)CCc1ccccc1C(=O)N[C@H](C)c1cccc2ccccc12` [Compound 7, methyl(R,E)-4-(2-(3-(2-((1-(naphthalen-1 yl)ethyl)carbamoyl)phenyl)propanoyl)hydrazineyl)-4-oxobut-2-enoate], the IC50 (USP15) is reported as > 30 µM, the IC50 (USP8) is reported as > 30 µM and the IC50 (USP7) is reported as > 30 µM. For the same compound, the half-life [1] was 31 min, the microsomal CLint [1] was 75.5 µL/min/mg and the Hill slope (SARS-CoV-2 PLpro [2]) was 1.34. It also gave a Hill slope (SARS-CoV-2 PLpro [3]) of 1.06, a remaining activity at 0.06 µM (PLpro from SARS-CoV-2 [4]; 0.06 uM inhibitor) of 66.6% and a remaining activity at 0.2 µM (PLpro from SARS-CoV-2 [4]; 0.20 uM inhibitor) of 17.4%. It also gave a remaining activity at 20.03 µM (PLpro from SARS-CoV-2 [4]; 20.03 uM inhibitor) of 2.85%, a remaining activity at 200 µM (PLpro from SARS-CoV-2 [4]; 200.00 uM inhibitor, 30-min preincubation) of 4.35% and a remaining activity at 0.06 µM (PLpro from SARS-CoV-2 [4]; inhibitor 0.06 uM) of 66.6%. It also gave a remaining activity at 0.2 µM (PLpro from SARS-CoV-2 [4]; inhibitor 0.20 uM) of 17.4%, a remaining activity at 20 µM (PLpro from SARS-CoV-2 [4]; inhibitor 20.00 uM) of 2.85% and a remaining activity at 200 µM (PLpro from SARS-CoV-2 [4]; inhibitor 200.00 uM) of 4.35%. For the same compound, the Measured adduct mass (PLpro) was 474, the “Kobs, mean” value (PLpro from SARS-CoV-2 [5]; 0.10 uM) was 0.00424 min⁻¹ and the “Kobs, mean” value (PLpro from SARS-CoV-2 [5]; 0.20 uM) was 0.03867 min⁻¹. For the same compound, the “Kobs, mean” value (PLpro from SARS-CoV-2 [5]; 0.30 uM) was 0.09135 min⁻¹, the remaining activity at 0.1 µM (PLpro from SARS-CoV-2 [5]; 5 min, read-out: PLpro activity after preincubation, inhibitor 0.1 uM, preincubation 5 min) was 95.7% and the remaining activity at 0.2 µM (PLpro from SARS-CoV-2 [5]; 5 min, read-out: PLpro activity after preincubation, inhibitor 0.2 uM, preincubation 5 min) was 105%. The remaining activity at 0.3 µM (PLpro from SARS-CoV-2 [5]; 10 min, read-out: PLpro activity after preincubation, inhibitor 0.3 uM, preincubation 10 min) was 30.7%, the remaining activity at 0.3 µM (PLpro from SARS-CoV-2 [5]; 0.5 h, read-out: PLpro activity after preincubation, inhibitor 0.3 uM, preincubation 30 min) was 17.7% and the remaining activity at 0.1 µM (PLpro from SARS-CoV-2 [5]; 1 h, read-out: PLpro activity after preincubation, inhibitor 0.1 uM, preincubation 60 min) was 74.1%. For the same compound, the remaining activity at 0.2 µM (PLpro from SARS-CoV-2 [5]; 1 h, read-out: PLpro activity after preincubation, inhibitor 0.2 uM, preincubation 60 min) was 2.6%, the remaining activity at 0.1 µM (PLpro from SARS-CoV-2 [5]; […], read-out: PLpro activity after preincubation, inhibitor 0.1 uM, preincubation 15 min) was 104% and the remaining activity at 0.1 µM (PLpro from SARS-CoV-2 [5]; […], read-out: PLpro activity after preincubation, inhibitor 0.1 uM, preincubation 45 min) was 75.3%. The remaining activity at 0.2 µM (PLpro from SARS-CoV-2 [5]; […], read-out: PLpro activity after preincubation, inhibitor 0.2 uM, preincubation 15 min) was 59.4%, the remaining activity at 0.2 µM (PLpro from SARS-CoV-2 [5]; […], read-out: PLpro activity after preincubation, inhibitor 0.2 uM, preincubation 90 min) was 0.514% and the remaining activity at 0.3 µM (PLpro from SARS-CoV-2 [5]; […], read-out: PLpro activity after preincubation, inhibitor 0.3 uM, preincubation 15 min) was 26.7%. For the same compound, the “Time dep. (time-dependent inhibition)” value (PLpro from SARS-CoV-2 [5]; fluorogenic peptide assay, varied preincubation time) was “Yes”, the “mean (kobs plot, Supplementary Figure 6 II)” value (PLpro from SARS-CoV-2 [5]; inhibitor 0.10 uM) was 0.00424 and the “mean (kobs plot, Supplementary Figure 6 II)” value (PLpro from SARS-CoV-2 [5]; inhibitor 0.20 uM) was 0.03867. The “mean (kobs plot, Supplementary Figure 6 II)” value (PLpro from SARS-CoV-2 [5]; inhibitor 0.30 uM) was 0.09135, the viability at […] ([6]; Severe acute respiratory syndrome coronavirus 2, Vero C1008, read-out: % cell viability, cytopathic effect) was 79.3% and 52.3% and the viability at 2.08 µM ([6]; Severe acute respiratory syndrome coronavirus 2, Vero C1008, read-out: % cell viability, cytopathic effect, 2.08 uM) was 80.5%. The viability at 16.65 µM ([6]; Severe acute respiratory syndrome coronavirus 2, Vero C1008, read-out: % cell viability, cytopathic effect, 16.65 uM) was 88.8%, the inhibition at […] ([6]; Severe acute respiratory syndrome coronavirus 2, Vero C1008, read-out: cytopathic effect, % cell viability) was 79.3% and 52.3% and the inhibition at 2.08 µM ([6]; Severe acute respiratory syndrome coronavirus 2, Vero C1008, read-out: cytopathic effect, % cell viability, [inhibitor] 2.08 uM, duplicate wells) was 80.5%. The inhibition at 16.65 µM ([6]; Severe acute respiratory syndrome coronavirus 2, Vero C1008, read-out: cytopathic effect, % cell viability, [inhibitor] 16.65 uM, duplicate wells) was 88.8%, the IC50 (USP2) was > 30 µM and the IC50 (USP30) was > 30 µM.
